Laboratory results reported in PubChem BioAssay (NCI).
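Each compound was tested at five concentrations against cells in 96-well plates for 48 hours. TGI is the concentration that stops growth completely.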

Tests used:
Assay in all cases: growth of human tumour cells (NCI), 48 h
RXF 393 renal = system: RXF 393 renal
A549 NSCLC = system: A549 NSCLC
PC-3 prostate = system: PC-3 prostate
MDA-MB-231 breast = system: MDA-MB-231 breast
ACHN renal = system: ACHN renal
MOLT-4 leukemia = system: MOLT-4 leukemia
OVCAR-5 ovarian = system: OVCAR-5 ovarian
MDA-N = system: MDA-N
NCI/ADR-RES ovarian = system: NCI/ADR-RES ovarian
OVCAR-4 ovarian = system: OVCAR-4 ovarian
HCT-116 colon = system: HCT-116 colon
SNB-75 CNS = system: SNB-75 CNS
KM12 colon = system: KM12 colon
OVCAR-8 ovarian = system: OVCAR-8 ovarian
SNB-19 CNS = system: SNB-19 CNS
A498 renal = system: A498 renal
HT29 colon = system: HT29 colon
SF-295 CNS = system: SF-295 CNS
COLO 205 colon = system: COLO 205 colon
LOX IMVI melanoma = system: LOX IMVI melanoma
TK-10 renal = system: TK-10 renal
786-0 renal = system: 786-0 renal
SN12C renal = system: SN12C renal
UO-31 renal = system: UO-31 renal
MCF7 breast = system: MCF7 breast
SR leukemia = system: SR leukemia
RPMI-8226 leukemia = system: RPMI-8226 leukemia
HL-60(TB) leukemia = system: HL-60(TB) leukemia
SK-MEL-5 melanoma = system: SK-MEL-5 melanoma
EKVX NSCLC = system: EKVX NSCLC
MDA-MB-435 = system: MDA-MB-435
SK-MEL-2 melanoma = system: SK-MEL-2 melanoma
M14 melanoma = system: M14 melanoma
CCRF-CEM leukemia = system: CCRF-CEM leukemia
HOP-92 NSCLC = system: HOP-92 NSCLC
T-47D breast = system: T-47D breast
SF-268 CNS = system: SF-268 CNS
U251 CNS = system: U251 CNS
SW-620 colon = system: SW-620 colon
CAKI-1 renal = system: CAKI-1 renal
SF-539 CNS = system: SF-539 CNS
UACC-257 melanoma = system: UACC-257 melanoma
NCI-H460 lung = system: NCI-H460 lung
SK-MEL-28 melanoma = system: SK-MEL-28 melanoma
HS 578T breast = system: HS 578T breast
HCT-15 colon = system: HCT-15 colon
K-562 leukemia = system: K-562 leukemia
UACC-62 melanoma = system: UACC-62 melanoma
SK-OV-3 ovarian = system: SK-OV-3 ovarian
HOP-62 NSCLC = system: HOP-62 NSCLC
HCC-2998 colon = system: HCC-2998 colon
OVCAR-3 ovarian = system: OVCAR-3 ovarian
NCI-H23 lung = system: NCI-H23 lung
MALME-3M melanoma = system: MALME-3M melanoma
BT-549 breast = system: BT-549 breast
NCI-H522 lung = system: NCI-H522 lung
NCI-H226 lung = system: NCI-H226 lung
IGROV1 ovarian = system: IGROV1 ovarian
DU-145 prostate = system: DU-145 prostate

Measured: TGI

C[n+]1noc(/N=N\[O-])c1-c1cc(-c2c(/N=N\[O-])on[n+]2C)cc(-c2c(/N=N/[O-])on[n+]2C)c1
> 100 µM: all assays above
